# Molecular target: T1, GPR6 receptor expressed in CHO-K1 cells (Homo sapiens, UniProt P46095)
# T1 construct: expressed in transfected cells
# Experiment: Inhibition of cAMP Activity of GPR6 In Vitro Assay
# Format: cell-based
# Settings: inhibition of constitutive cAMP activity of GPR6 in CHO-K1 cells, 45 min incubation, HTRF cAMP detection
# Experimental: Inhibition of cAMP Activity of GPR6 In Vitro Assay
# This cell based assay measures the ability of compounds to inhibit the constitutive cAMP activity of GPR6 receptor expressed in CHO-K1 cells. CHO cells were stably expressed with GPR6 receptor, whose expression is controlled by a tetracycline inducable element. The cells were cultured in medium containing F12K, 10% FBS, 1% Penn/Strep, 200 ug/mL Hygromycin. GPR6 receptor expression was induced for 20 hrs with 2 µg/ml doxycycline (sigma D9891) in growth media. After addition of doxycycline cells were plated at a density of 450-750 cells per well in 96-well half-volume black tissue culture plates (Costar) and placed in an incubator (37°, 5% CO2) for 20 hours prior to cAMP assays.
# Culture media was removed from cells and they were washed with 50 µL/well of Ringer's Buffer (MgCl2 0.047 mg/mL, NaH2PO4 0.18 mg/mL, Na2HPO4 0.1 mg/mL, KCl 0.34 mg/mL, NaHCO3 1.26 mg/mL, D-glucose 1.8 mg/mL, NaCl 7 mg/mL; pH=7.4). Compounds suspended in DMSO were diluted in Ringer's Buffer containing 0.5% fatty acid free BSA plus 300 μM IBMX and incubated on cells for 45 min at 37° and 5% CO2. After incubation cells were incubated for 10 min at room temp with Eu-cAMP tracer solution from a Perkin Elmer Lance HTRF Ultra cAMP assay kit (TRF0263). Then ULight™-anti-cAMP solution from the Lance HTRF kit was added and incubated on a shaker at room temp for 1 hour prior to HTRF detection in a Perkin Elmer Envision plate reader.
# IC50 curves were generated with a four-parameter logistic equation using GraphPad Prism 5.03.
# T1 sequence (P46095 whole entry): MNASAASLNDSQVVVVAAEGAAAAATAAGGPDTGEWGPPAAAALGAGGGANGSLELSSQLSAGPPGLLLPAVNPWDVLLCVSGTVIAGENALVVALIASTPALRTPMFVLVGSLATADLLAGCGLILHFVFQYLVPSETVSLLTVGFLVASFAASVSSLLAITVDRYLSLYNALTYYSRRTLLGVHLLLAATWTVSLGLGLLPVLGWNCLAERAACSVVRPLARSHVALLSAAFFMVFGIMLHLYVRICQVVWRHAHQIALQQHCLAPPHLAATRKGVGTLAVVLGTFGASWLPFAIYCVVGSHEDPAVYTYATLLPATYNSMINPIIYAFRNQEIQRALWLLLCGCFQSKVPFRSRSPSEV
row,Compound,EC50 [µM]
1,"Cc1cc2nc(N[C@H]3CCOC3)c(N3CCC(Oc4ccc(F)cc4F)CC3)nc2cn1 [Example 4, (S)-3-(4-(2,4-difluorophenoxy)piperidin-1-yl)-7-methyl-N-(tetrahydrofuran-3-yl)pyrido[3,4-b]pyrazin-2-amine]",0.0496
2,"Cc1cc2nc(N3CCC(Oc4ccc(OC(F)F)cc4F)CC3)c(NC(C)C)nc2cn1 [Example 38, 2-(4-(4-(difluoromethoxy)-2-fluorophenoxy)piperidin-1-yl)-N-isopropyl-7-methylpyrido[3,4-b]pyrazin-3-amine]",0.309
3,"COc1ccc(CN2CCN(c3nc4cnc(C)cc4nc3N[C@H]3CCOC3)CC2)c(F)c1 [Example 25, (S)-3-(4-(2-fluoro-4-methoxybenzyl)piperazin-1-yl)-7-methyl-N-(tetrahydrofuran-3-yl)pyrido[3,4-b]pyrazin-2-amine]",0.278
4,"Cc1cc2nc(NC(C)C)c(N3CCN(Cc4ccc(F)cc4F)CC3)nc2cn1 [Example 1, 3-(4-(2,4-difluorobenzyl)piperazin-1-yl)-N-isopropyl-7-methylpyrido[3,4-b]pyrazin-2-amine]",0.0594
5,Cc1cc2nc(N[C@H]3CCOC3)c(N3CCN(Cc4ccc(F)cc4F)CC3)nc2cn1 [Example 3],0.0882
6,"Cc1cc2nc(N3CCC(Oc4ccc(OC(F)F)cc4F)CC3)c(N[C@H]3CCOC3)nc2cn1 [Example 41, (S)-2-(4-(4-(difluoromethoxy)-2-fluorophenoxy)piperidin-1-yl)-7-methyl-N-(tetrahydrofuran-3-yl)pyrido[3,4-b]pyrazin-3-amine]",> 1
7,"Cc1cc2nc(N[C@H]3C[C@@H](O)C3)c(N3CCN(Cc4ccc(F)cc4F)CC3)nc2cn1 [Example 10, cis-3-((3-(4-(2,4-difluorobenzyl)piperazin-1-yl)-7-methylpyrido[3,4-b]pyrazin-2-yl)amino)cyclobutanol]",0.0693
8,"COc1ccc(OC2CCN(c3nc4cnc(C)cc4nc3NC3CC3)CC2)c(F)c1 [Example 8, N-cyclopropyl-3-(4-(2-fluoro-4-methoxyphenoxy)piperidin-1-yl)-7-methylpyrido[3,4-b]pyrazin-2-amine 2,2,2-trifluoroacetate]",0.0185
9,"Cc1cc2nc(N[C@H]3C[C@H](F)C3)c(N3CCC(Oc4ccc(F)cc4F)CC3)nc2cn1 [Example 11, trans-3-(4-(2,4-difluorophenoxy)piperidin-1-yl)-N-(3-fluorocyclobutyl)-7-methylpyrido[3,4-b]pyrazin-2-amino]",0.0614
10,"Cc1cc2nc(NC3CC3)c(N3CCN(Cc4ccc(OC(F)F)cc4F)CC3)nc2cn1 [Example 27, N-cyclopropyl-3-(4-(4-(difluoromethoxy)-2-fluorobenzyl)piperazin-1-yl)-7-methylpyrido[3,4-b]pyrazin-2-amine]",0.446
11,"Cc1cc2nc(N[C@H]3C[C@H](O)C3)c(N3CCN(Cc4ccc(F)cc4F)CC3)nc2cn1 [Example 14, trans-3-((3-(4-(2,4-difluorobenzyl)piperazin-1-yl)-7-methylpyrido[3,4-b]pyrazin-2-yl)amino)cyclobutanol]",0.0752
12,"Cc1cc2nc(N[C@H]3C[C@H](F)C3)c(N3CCN(Cc4ccc(F)cc4F)CC3)nc2cn1 [Example 12, trans-3-(4-(2,4-difluorobenzyl)piperazin-1-yl)-N-(3-fluorocyclobutyl)-7-methylpyrido[3,4-b]pyrazin-2-amine]",0.0494
13,"Cc1cc2nc(N[C@@H]3CCOC3)c(N3CCN(Cc4ccc(OC(F)F)cc4F)CC3)nc2cn1 [Example 28, (R)-3-(4-(4-(difluoromethoxy)-2-fluorobenzyl)piperazin-1-yl)-7-methyl-N-(tetrahydrofuran-3-yl)pyrido[3,4-b]pyrazin-2-amine]",> 1
14,"Cc1cc2nc(NC(C)C)c(N3CCN(Cc4ccc(OC(F)F)cc4F)CC3)nc2cn1 [Example 26, 3-(4-(4-(difluoromethoxy)-2-fluorobenzyl)piperazin-1-yl)-N-isopropyl-7-methylpyrido[3,4-b]pyrazin-2-amine]",0.466
15,"Cc1cc2nc(N3CCN(Cc4ccc(F)cc4F)CC3)c(NC(C)C)nc2cn1 [Example 30, 2-(4-(2,4-difluorobenzyl)piperazin-1-yl)-N-isopropyl-7-methylpyrido[3,4-b]pyrazin-3-amine 2,2,2-trifluoroacetate]",0.0801
16,"Cc1cc2nc(N3CCN(Cc4ccc(OC(F)F)cc4F)CC3)c(N[C@@H]3CCOC3)nc2cn1 [Example 48, (R)-2-(4-(4-(difluoromethoxy)-2-fluorobenzyl)piperazin-1-yl)-7-methyl-N-(tetrahydrofuran-3-yl)pyrido[3,4-b]pyrazin-3-amine]",> 1

row,Compound,EC50 [µM]
1,"Cc1cc2nc(NC3CC3)c(N3CCC(Oc4ccc(OC(F)F)cc4F)CC3)nc2cn1 [Example 19, N-cyclopropyl-3-(4-(4-(difluoromethoxy)-2-fluorophenoxy)piperidin-1-yl)-7-methylpyrido[3,4-b]pyrazin-2-amine]",0.0626
2,"Cc1cc2nc(N3CCN(Cc4ccc(F)cc4F)CC3)c(NC3CC3)nc2cn1 [Example 31, N-cyclopropyl-2-(4-(2,4-difluorobenzyl)piperazin-1-yl)-7-methylpyrido[3,4-b]pyrazin-3-amine 2,2,2-trifluoroacetate]",0.188
3,"Cc1cc2nc(N[C@@H]3CCOC3)c(N3CCC(Oc4ccc(OC(F)F)cc4F)CC3)nc2cn1 [Example 20, (R)-3-(4-(4-(difluoromethoxy)-2-fluorophenoxy)piperidin-1-yl)-7-methyl-N-(tetrahydrofuran-3-yl)pyrido[3,4-b]pyrazin-2-amine]",0.0814
4,"COc1ccc(CN2CCN(c3nc4cnc(C)cc4nc3NC3CC3)CC2)c(F)c1 [Example 23, N-cyclopropyl-3-(4-(2-fluoro-4-methoxybenzyl)piperazin-1-yl)-7-methylpyrido[3,4-b]pyrazin-2-amine]",0.158
5,"Cc1cc2nc(N3CCN(Cc4ccc(OC(F)F)cc4F)CC3)c(N[C@H]3CCOC3)nc2cn1 [Example 49, (S)-2-(4-(4-(difluoromethoxy)-2-fluorobenzyl)piperazin-1-yl)-7-methyl-N-(tetrahydrofuran-3-yl)pyrido[3,4-b]pyrazin-3-amine]",> 1
6,"Cc1cc2nc(N3CCN(Cc4ccc(F)cc4F)CC3)c(N[C@H]3CCOC3)nc2cn1 [Example 32, (S)-2-(4-(2,4-difluorobenzyl)piperazin-1-yl)-7-methyl-N-(tetrahydrofuran-3-yl)pyrido[3,4-b]pyrazin-3-amine]",0.326
7,"Cc1cc2nc(N3CCN(Cc4ccc(F)cc4F)CC3)c(NC3COC3)nc2cn1 [Example 50, 2-(4-(2,4-difluorobenzyl)piperazin-1-yl)-7-methyl-N-(oxetan-3-yl)pyrido[3,4-b]pyrazin-3-amine]",0.164
8,Cc1cc2nc(N3CCC(Oc4ccc(F)cc4F)CC3)c(N[C@@H]3CCOC3)nc2cn1 [Example 36],0.0763
9,"Cc1cc2nc(N3CCC(Oc4ccc(F)cc4F)CC3)c(NC3CC3)nc2cn1 [Example 34, N-cyclopropyl-2-(4-(2,4-difluorophenoxy)piperidin-1-yl)-7-methylpyrido[3,4-b]pyrazin-3-amine]",0.0949
10,"Cc1cc2nc(N[C@H]3CCOC3)c(N3CCC(Oc4ccc(OC(F)F)cc4F)CC3)nc2cn1 [Example 21, (S)-3-(4-(4-(difluoromethoxy)-2-fluorophenoxy)piperidin-1-yl)-7-methyl-N-(tetrahydrofuran-3-yl)pyrido[3,4-b]pyrazin-2-amine]",0.162
11,"COc1ccc(CN2CCN(c3nc4cc(C)ncc4nc3N[C@@H]3CCOC3)CC2)c(F)c1 [Example 44, (R)-2-(4-(2-fluoro-4-methoxybenzyl)piperazin-1-yl)-7-methyl-N-(tetrahydrofuran-3-yl)pyrido[3,4-b]pyrazin-3-amine]",> 1
12,"Cc1cc2nc(N3CCN(Cc4ccc(OC(F)F)cc4F)CC3)c(NC3CC3)nc2cn1 [Example 47, N-cyclopropyl-2-(4-(4-(difluoromethoxy)-2-fluorobenzyl)piperazin-1-yl)-7-methylpyrido[3,4-b]pyrazin-3-amine]",> 1
13,"COc1ccc(CN2CCN(c3nc4cc(C)ncc4nc3NC(C)C)CC2)c(F)c1 [Example 42, 2-(4-(2-fluoro-4-methoxybenzyl)piperazin-1-yl)-N-isopropyl-7-methylpyrido[3,4-b]pyrazin-3-amine]",0.276
14,"Cc1cc2nc(N3CCC(Oc4ccc(OC(F)F)cc4F)CC3)c(N[C@@H]3CCOC3)nc2cn1 [Example 40, (R)-2-(4-(4-(difluoromethoxy)-2-fluorophenoxy)piperidin-1-yl)-7-methyl-N-(tetrahydrofuran-3-yl)pyrido[3,4-b]pyrazin-3-amine]",> 1
15,"Cc1cc2nc(N[C@@H]3CCOC3)c(N3CCC(Oc4ccc(F)cc4F)CC3)nc2cn1 [Example 5, (R)-3-(4-(2,4-difluorophenoxy)piperidin-1-yl)-7-methyl-N-(tetrahydrofuran-3-yl)pyrido[3,4-b]pyrazin-2-amine]",0.0301
16,"Cc1cc2nc(NC3COC3)c(N3CCN(Cc4ccc(F)cc4F)CC3)nc2cn1 [Example 15, 3-(4-(2,4-difluorobenzyl)piperazin-1-yl)-7-methyl-N-(oxetan-3-yl)pyrido[3,4-b]pyrazin-2-amine]",0.0219

# Source: patent US10597392B2, “Tetrahydropyridopyrazines as modulators of GPR6” (Takeda Pharmaceutical Corporation Limited, priority 2014, dated 2020)
